Assays:
Test in all cases: relative viability (nuclei count vs DMSO), 5 days (fraction); higher = more cells survive
DM3189 + Trametinib = compound: C1CN(CCN1)C2=CC=C(C=C2)C3=CN4C(=C(C=N4)C5=CC=NC6=CC=CC=C56)N=C3 [DM3189] + CC(=O)Nc1cccc(-n2c(=O)n(C3CC3)c(=O)c3c(Nc4ccc(I)cc4F)n(C)c(=O)c(C)c32)c1 [Trametinib] (partner 0.02 µM)
In short: (§1)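 Nuclei were stained with Hoechst during a one-step fixation (final 0.05% Triton X-100, 1% formaldehyde, 1 ug/ml Hoechst) carried out 5 days after dosing, then counted on 4× images. The cells, lung cancer lines in 1536-well plates, had been dosed by pin tool the day after seeding with one drug alone or a fixed anchor-drug dose plus five library-drug doses (not always all listed) in √10 steps. Relative viability is the nuclei count in treated wells divided by that in vehicle wells, and each value is the median of duplicate plates.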

DM3189 + Pictilisib = compound: C1CN(CCN1)C2=CC=C(C=C2)C3=CN4C(=C(C=N4)C5=CC=NC6=CC=CC=C56)N=C3 [DM3189] + CS(=O)(=O)N1CCN(Cc2cc3nc(-c4cccc5[nH]ncc45)nc(N4CCOCC4)c3s2)CC1 [Pictilisib] (partner 1 µM)
In short: as §1

DM3189 + Crizotinib = compound: C1CN(CCN1)C2=CC=C(C=C2)C3=CN4C(=C(C=N4)C5=CC=NC6=CC=CC=C56)N=C3 [DM3189] + C[C@@H](Oc1cc(-c2cnn(C3CCNCC3)c2)cnc1N)c1c(Cl)ccc(F)c1Cl [Crizotinib] (partner 1 µM)
In short: as §1

DM3189 + AZD7762 = compound: C1CN(CCN1)C2=CC=C(C=C2)C3=CN4C(=C(C=N4)C5=CC=NC6=CC=CC=C56)N=C3 [DM3189] + NC(=O)Nc1cc(-c2cccc(F)c2)sc1C(=O)N[C@H]1CCCNC1 [AZD7762] (partner 0.2 µM)
In short: as §1

DM3189 + Olaparib = compound: C1CN(CCN1)C2=CC=C(C=C2)C3=CN4C(=C(C=N4)C5=CC=NC6=CC=CC=C56)N=C3 [DM3189] + O=C(c1cc(Cc2n[nH]c(=O)c3ccccc23)ccc1F)N1CCN(C(=O)C2CC2)CC1 [Olaparib] (partner 8 µM)
In short: as §1

| Cell Line | relative viability (DM3189 + Trametinib; first compound 0.08 µM) | relative viability (DM3189 + Trametinib; first compound 0.253 µM) | relative viability (DM3189 + Trametinib; first compound 0.8 µM) | relative viability (DM3189 + Trametinib; first compound 2.53 µM) | relative viability (DM3189 + Pictilisib; first compound 0.08 µM) | relative viability (DM3189 + Pictilisib; first compound 0.253 µM) | relative viability (DM3189 + Pictilisib; first compound 0.8 µM) | relative viability (DM3189 + Pictilisib; first compound 2.53 µM) | relative viability (DM3189 + Crizotinib; first compound 0.08 µM) | relative viability (DM3189 + Crizotinib; first compound 0.253 µM) | relative viability (DM3189 + Crizotinib; first compound 0.8 µM) | relative viability (DM3189 + Crizotinib; first compound 2.53 µM) | relative viability (DM3189 + AZD7762; first compound 0.08 µM) | relative viability (DM3189 + AZD7762; first compound 0.253 µM) | relative viability (DM3189 + AZD7762; first compound 0.8 µM) | relative viability (DM3189 + AZD7762; first compound 2.53 µM) | relative viability (DM3189 + Olaparib; first compound 0.08 µM) | relative viability (DM3189 + Olaparib; first compound 0.253 µM) | relative viability (DM3189 + Olaparib; first compound 0.8 µM) | relative viability (DM3189 + Olaparib; first compound 2.53 µM) |
| --- | --- | --- | --- | --- | --- | --- | --- | --- | --- | --- | --- | --- | --- | --- | --- | --- | --- | --- | --- | --- |
| NCI-H2347 | 0.28 | 0.262 | 0.276 | 0.31 | 0.493 | 0.452 | 0.569 | 0.517 | 0.692 | 0.761 | 0.67 | 0.675 | 0.726 | 0.779 | 0.723 | 0.733 | 0.544 | 0.53 | 0.522 | 0.55 |
| NCI-H838 | 0.57 | 0.454 | 0.388 | 0.496 | 0.521 | 0.35 | 0.317 | 0.397 | 0.752 | 0.815 | 0.531 | 0.732 | 0.979 | 0.856 | 0.816 | 0.895 | 0.871 | 0.711 | 0.543 | 0.556 |
| NCI-H1355 | 0.408 | 0.429 | 0.33 | 0.421 | 0.539 | 0.399 | 0.311 | 0.362 | 1.14 | 1.12 | 0.955 | 0.971 | 0.687 | 0.813 | 0.585 | 0.648 | 0.723 | 0.687 | 0.689 | 0.785 |
| NCI-H1944 | 0.463 | 0.422 | 0.42 | 0.413 | 0.405 | 0.336 |  | 0.389 | 1.25 | 1 |  | 1.22 | 0.547 | 0.55 | 0.576 | 0.446 | 0.385 | 0.405 | 0.35 | 0.378 |
| NCI-H2085 | 0.521 | 0.613 | 0.598 | 0.668 | 0.379 | 0.473 | 0.393 | 0.409 | 0.941 | 0.807 | 0.872 | 0.752 | 0.994 | 1.06 | 0.965 | 1.03 | 0.735 | 0.804 | 0.804 | 0.883 |
| NCI-H2126 | 0.609 | 0.534 | 0.509 | 0.524 | 0.544 | 0.53 | 0.465 | 0.478 | 1.07 | 0.989 | 0.98 | 1.06 | 1.05 | 1.07 | 0.968 | 1.01 | 0.99 | 0.89 | 0.896 | 0.991 |
| PC-14 | 0.732 | 0.877 | 0.635 | 0.849 | 0.782 | 0.739 | 0.673 | 0.538 | 0.807 | 0.914 | 0.791 | 0.862 | 0.569 | 0.249 | 0.263 | 0.26 | 0.277 | 0.238 | 0.264 | 0.226 |
| LC-2-ad | 0.938 | 0.901 | 0.875 | 0.919 | 0.588 | 0.563 | 0.397 | 0.473 | 0.419 | 0.458 | 0.382 | 0.378 | 0.927 | 0.872 | 0.872 | 0.8 | 0.713 | 0.66 | 0.652 | 0.747 |
| HCC-78 | 0.64 | 0.588 | 0.541 | 0.624 | 0.206 | 0.188 |  | 0.224 | 0.314 | 0.328 |  | 0.317 | 0.644 | 0.546 | 0.497 | 0.531 | 0.763 | 0.659 | 0.586 | 0.944 |
| LOU-NH91 | 0.846 | 0.793 | 0.685 | 0.765 | 0.534 | 0.517 | 0.477 | 0.519 | 0.754 | 0.709 | 0.718 | 0.727 | 0.825 | 0.73 | 0.642 | 0.683 | 0.921 | 0.896 | 0.76 | 0.92 |
| NCI-H1734 | 0.651 | 0.623 | 0.652 | 0.685 | 0.541 | 0.417 | 0.442 | 0.383 | 0.585 | 0.695 | 0.676 | 0.657 | 0.6 | 0.573 | 0.511 | 0.383 | 0.61 | 0.588 | 0.563 | 0.63 |
| NCI-H596 | 0.814 | 0.842 | 0.901 | 0.847 | 0.419 | 0.247 | 0.412 | 0.407 | 1.15 | 1.01 | 0.93 | 0.943 | 1.15 | 1.07 | 1.08 | 0.986 | 0.588 | 0.646 | 0.702 | 0.747 |
| NCI-H1993 | 0.504 | 0.501 | 0.641 | 0.486 |  | 0.85 | 0.852 | 0.718 |  | 0.846 | 0.744 | 0.991 | 0.824 | 0.776 | 0.653 | 0.643 | 1.05 | 1.13 | 1.02 | 1.13 |
| NCI-H647 | 0.488 | 0.399 | 0.378 | 0.412 | 0.381 | 0.334 |  | 0.381 | 1.12 | 0.877 | 0.883 | 0.307 | 0.626 | 0.408 | 0.4 | 0.277 | 0.459 | 0.492 | 0.368 | 0.163 |
| NCI-H1755 | 0.786 | 0.801 | 0.725 | 0.836 | 0.51 | 0.417 | 0.334 | 0.399 | 0.768 | 0.837 | 0.736 | 0.818 | 0.482 | 0.455 | 0.615 | 0.372 | 0.821 | 0.831 | 0.717 | 0.922 |
| NCI-H650 | 0.988 | 0.826 | 0.749 | 0.877 | 0.976 | 0.888 | 0.741 | 0.845 | 0.754 | 0.575 | 0.594 | 0.661 | 0.937 | 0.956 | 1.05 | 1 | 0.355 | 0.428 | 0.347 | 0.329 |

— the supplement of paper PMC10307832
